# In US11542263B2 (NeuroCycle Therapeutics, Inc., priority 2018, dated 2023):
# Read-outs that look alike come from different tables or passages of the source.
# Assay: Solubility in aqueous buffers and simulated fluids, 24 h, HPLC
# Assay type: physicochemical
# Conditions: for solubility at 24 h: 22.5 °C, thermodynamic from solid, read-out: Measured Conc. (solubility); for solubility at 24 h / Measured Conc. (solubility): ~24 h
# Procedure: About 2 mg of test article was added to a 1.5 mL vials which contained ˜1.0 mL of one medium listed in Table 7 and Table 8, which was then sealed. The mixtures were stirred at ˜20-25° C. for ˜24 hours. After that, the mixture was filtered by 0.45 μm filter membrane and then the supernatant was analyzed by HPLC.
compound,measurement,setting,value
"CC(C)(O)c1cnn2c(-c3ccc(F)c(-c4c(F)cccc4C#N)c3)cnc2n1.O=P(O)(O)O [Phosphate Polymorphic Form A, 2′,6-difluoro-5′-[3-(1-hydroxy-1-methylethyl)-imidazo[1,2-b][1,2,4]triazin-7-yl]biphenyl-2-carbonitrile]",solubility at 24 h,"aqueous buffer, pH 3.0 citrate buffer (100 mM), initial pH 3.05, LOQ: 0.1 μg/mL",0.16 µg/mL
same,solubility at 24 h,"pH 1.8, simulated gastric fluid, SGF, initial pH 1.80, ~20-25° C.",3.85 µg/mL
same,solubility at 24 h,"simulated gastric fluid, pH 1.2 Hydrochloric Acid Buffer (50 mM), initial pH 1.17, ~20-25° C.",22.9 µg/mL
same,solubility at 24 h,"FaSSIF, initial pH 6.51, ~20-25° C.",7.14 µg/mL
same,solubility at 24 h,"FeSSIF, initial pH 5.00, ~20-25° C.",50.7 µg/mL
same,solubility at 24 h,"Purified water, initial pH 7.02, ~20-25° C., target 2 mg/mL",0.4 µg/mL
same,pH value of supernatant,"FaSSIF, initial pH 6.51",6.09
same,pH value of supernatant,"FeSSIF, initial pH 5.00",4.94
same,pH value of supernatant,"Purified water, initial pH 7.02",2.62
same,pH value of supernatant,"SGF, initial pH 1.80",1.67
same,solubility compared with Free Base Polymorphic Form A,"in SGF, FaSSIF and FeSSIF",higher solubility
same,pH value of supernatant,"pH 1.2 Hydrochloric Acid Buffer (50 mM), initial pH 1.17",0.99
same,pH value of supernatant,"pH 3.0 citrate buffer (100 mM), initial pH 3.05",2.96
same,pH value of supernatant,"pH 4.5 citrate buffer (100 mM), initial pH 4.44",4.41
same,Measured Conc. (solubility),"pH 4.5 citrate buffer (100 mM), initial pH 4.44, LOQ: 0.1 μg/mL",<LOQ
same,pH value of supernatant,"pH 7.4 PBS (50 mM), initial pH 7.40",7.09
same,Measured Conc. (solubility),"pH 7.4 PBS (50 mM), initial pH 7.40, LOQ: 0.1 μg/mL",<LOQ
same,pH value of supernatant,"pH 9.0 USP Buffer (50 mM), initial pH 8.94",8.46
same,Measured Conc. (solubility),"pH 9.0 USP Buffer (50 mM), initial pH 8.94, LOQ: 0.1 μg/mL",<LOQ
